How the values were obtained:
[1] = system: 3-mercaptopropionic acid (3-MPA)-induced convulsions; assay: 3-MPA-induced convulsions, protection of mice; assay type: in vivo, male Swiss albino mice; conditions: 3-MPA 120 mg/kg s.c.; for Number of Mice Protected From 3-MPA-Induced Convulsions: total protected of two groups of 5 mice
Protocol: (§1) Treatment of a mammal afflicted by or susceptible to certain CNS disorders is accomplished by administration of a therapeutically-effective amount of a compound of Formula I. In particular, Compounds #1-19 of Tables I and II were evaluated by in vitro and in vivo animal model assays to determine the pharmacological properties of such compounds and their likely suitability for use as therapeutic drugs in humans. These biological assays, as described below, consisted of prevention of induced convulsions in mice, determination of acute toxicity in mice and animal behavior assays. Except as otherwise specified, the animals used in the in vivo tests were male Swiss albino mice weight 22 to 33 g [CD1, Charles River, France], housed in groups of 10 on a 12-hour dark-light cycle for at least one week before use and fasted overnight prior to testing.
Compounds of Formula I were evaluated as inhibitors of convulsions and death induced by different convulsant agents: 3-mercaptopropionic acid (3-MPA; 120 mg/kg subcutaneously), pentylenetetrazole (PTZ, 55 mg/kg intravenously) and supramaximal electroconvulsive shocks (ECS evoked by a current intensity of 48 mA, 50 Hz. 0.2 sec duration, 10 msec square pulse, corneal electrodes) [W. van Dorsser, D. Barris, A. Cordi and J. Roba, Arch. Int. Pharmacodyn., 266, 239-249 (1983)]. The compounds of the invention were administered orally at a dosage of either 100 mg/kg or 30 mg/kg in a volume of 10 ml/kg each to 5 mice at intervals of 30 minutes or 2 hours before convulsions were induced. The number of mice protected against tonic convulsions and the number of dead mice were noted. Results are given in Table III as a score which represents the total number of mice protected for two groups of 5 animals (3-MPA).
(§2) Based upon data generated from the previously-described anti-convulsant experiments, ED50 values were calculated at which Compound #18 inhibits convulsions induced by the convulsant agents listed in Table V.

[2] = Acute toxicity after oral administration; conditions: mouse, in vivo, mice, mortality over 15 days
Protocol: as §1
(§3) The acute toxicity of compounds of the invention was determined after oral administration of the test compound to mice. Compound to be tested was suspended in a 1% tragacanth gum mucilage, and was administered by means of an intragastric probe to a group of three male mice, which doses varied from 3,000 mg/kg down to about 3 mg/kg. Doses used in the test were determined by observing toxic effects on the mice. The mortality was recorded over a period of 15 days. The LD50 results reported in Table V were calculated according to published methods [Lichtfield and Wilcoxon, J. Pharmacol. Exp. Ther., 96, 99 (1949)] and expressed in mg or test compound per kilogram of mouse body weight.

mice = system: mice; set-up: species or system male Swiss albino mice; conditions: mouse, in vivo, po
Protocol: as §1, §3
Behavioral effects of compounds of the invention on animals were determined by observations taken at 5 to 6 hours and at 24 hours after administration of compounds in the acute toxicity studies. Determinations were made based on a method derived from that of S. Irwin [See R. A. Turner, Screening Methods in Pharmacology, Chapter 3, pages 22-34, Academic Press, N.Y. (1965)]. If an anomaly were noted, the observation was extended and smaller doses were tested. Possible types of behavior to be observed are as follows: analgesia (AAG), convulsions (CON), depression (DEP), exophthalmia (EOP), excitation (EXC), hyperalgesia (HAG), hypothermia (ATH), hypotonia (ATN), piloerection (PIE), palpebral ptosis (PTO), reduction of the pinna reflex (RPI), reduction of the rearing reflex (RRE), reduction of the flexion reflex (RRF), sedation (SED), tremors (TRE), cyanosis (CYA), diarrhea (DIA), increase of the pinna reflex (HPI), increase of the flexion reflex (HRF), dyspnea (DYS). Behaviors observed are reported in Table IV by numbers which represent the dose at which the behavior is observed.

[3] = system: supramaximal electroconvulsive shocks (ECS)-induced convulsions; assay: Supramaximal electroconvulsive shock (ECS) induced convulsions; assay type: in vivo, male Swiss albino mice; conditions: Mus musculus; oral; ECS 48 mA, 50 Hz, 0.2 sec; read-out: Inhibition of Convulsions (ED50), ECS
Protocol: as §1, with “Except as otherwise specified, the animals used in the in vivo tests were male Swiss albino mice weight 22 to 33 g [CD1, Charles River, France], housed in groups of 10 on a 12-hour dark-light cycle for at least one week before use and fasted overnight prior to testing.” left out
(§4) Compounds of Formula I were evaluated as inhibitors of convulsions and death induced by different convulsant agents: 3-mercaptopropionic acid (3-MPA; 120 mg/kg subcutaneously), pentylenetetrazole (PTZ, 55 mg/kg intravenously) and supramaximal electroconvulsive shocks (ECS evoked by a current intensity of 48 mA, 50 Hz. 0.2 sec duration, 10 msec square pulse, corneal electrodes) [W. van Dorsser, D. Barris, A. Cordi and J. Roba, Arch. […]
as §2

[4] = system: pentylenetetrazole (PTZ)-induced convulsions; assay: Pentylenetetrazole (PTZ) induced convulsions; assay type: in vivo, male Swiss albino mice; conditions: Mus musculus; oral; PTZ 55 mg/kg i.v.; read-out: Inhibition of Convulsions (ED50), PZT
Protocol: as §1, with “Except as otherwise specified, the animals used in the in vivo tests were male Swiss albino mice weight 22 to 33 g [CD1, Charles River, France], housed in groups of 10 on a 12-hour dark-light cycle for at least one week before use and fasted overnight prior to testing.” left out
as §4, §2

[5] = system: afterdischarge-like spike activity; assay: Chronic focal epilepsy assay (cobalt powder on frontal cortex, EEG); assay type: in vivo; conditions: intraperitoneal, rat
From the text: In a model of chronic focal epilepsy where cobalt powder is placed on rat frontal cortex, the animals develop, after several days, chronic expression of afterdischarge-like spike activity which can be recorded by EEG.

5HTP-induced head twitch = assay: 5HTP-induced head twitch; assay type: in vivo, mice
Protocol: as §1
Compound #18 was evaluated for inhibition of head twitches produced in mice by administration of L-5-hydroxytryptophan (5HTP, 10 mg/kg intraperitoneously) after nialamide treatment (50 mg/kg intraperitoneal, 22 hours before the test). The head twitches were counted for 45 min. starting 15 min. after 5HTP administration. [E. Friedmann & al.; Europ. J. Pharmocol., 89, 69-76 (1983)].

[6] = system: hypomotility induced by the α2 agonist clonidine; assay: Clonidine-induced hypomotility; assay type: in vivo; conditions: 10 mg/kg; clonidine 150 mg/kg i.p.; eight mice, 90 min after clonidine
Protocol: as §1
Given alone, clonidine inhibits spontaneous locomotor and rearing activity. Eight test mice were treated with Compound #18 and subsequently with clonidine ([…], intraperitoneal). Then, 90 min. after clonidine administration the mice were placed in a rectangular open field of 47×53 cm, having a floor divided into 36 boxes of about 8×9 cm. The number of boxes through which the animal goes in 3 min. and the number of rearing episodes were noted.

SMILES	Number of Mice Protected From 3-MPA-Induced Convulsions ([1]; oral 30 mpk, interval 30 min) [mice]	Number of Mice Protected From 3-MPA-Induced Convulsions ([1]; oral 100 mpk, interval 30 min) [mice]	LD50 at 360 h [2] [mg/kg]	Behavior: dose at which sedation (SED) is observed (mice) [mg/kg]	further results
NC(=O)CNC(c1ccc(Cl)cc1)c1ccc(Cl)cc1 [Compound 8, 2-[di(4-chlorophenyl)]methylaminoacetamide]	1				
Cc1ccc(C)c(C(NCC(N)=O)c2ccccc2)c1 (stereo not shown) [Compound 9, 2-[(2,5-dimethylphenyl)phenyl]methylaminoacetamide]	1				
NC(=O)CNC(c1ccc(F)cc1)c1ccc(F)cc1 [Compound 13, 2-[di(4-fluorophenyl)]methylaminoacetamide]	5				
NC(=O)CNC(c1ccccc1)c1ccc(C(F)(F)F)cc1 (stereo not shown) [Compound 7, 2-[(4-trifluoromethylphenyl)phenyl]methylaminoacetamide]	4				
COc1ccc(C(NCC(N)=O)c2ccccc2)cc1 (stereo not shown) [Compound 2, 2-[(4-methoxyphenyl)phenyl]methylaminoacetamide]		8			
NC(=O)CNC(c1ccccc1)c1ccc(Br)cc1 (stereo not shown) [Compound 10, 2-[(4-bromophenyl)phenyl]methylaminoacetamide]	3		> 1000	1000	
NC(=O)CNC(c1ccccc1)c1ccccc1 [Compound 18, 2-diphenylmethylaminoacetamide]	9	10	1020		ED50 ([1]; Mus musculus, oral, read-out: Inhibition of Convulsions (ED50), 3-MPA): 9.3 mg/kg; Number of Mice Protected From 3-MPA-Induced Convulsions ([1]; oral 100 mpk, interval 2 hr): 10 mice; ED50 [3]: 26 mg/kg; ED50 [4]: 66 mg/kg; Behavior: dose at which depression (DEP) is observed (mice): 1000 mg/kg; Behavior: dose at which palpebral ptosis (PTO) is observed (mice): 1000 mg/kg; time over which inhibition of spike activities was observed ([5]; threshold dose of 50 mg/kg): 14 to 90 min; minimal effective dose ([5]; ip, read-out: threshold dose for inhibiting spike activities): 50 mg/kg; ED50 (5HTP-induced head twitch; Mus musculus, po, 2 hours before 5HTP (10 mg/kg i.p.), nialamide pretreated mice, read-out: ED50 for inhibition of 5HTP-induced head twitches): 10 mg/kg; effect on 5HTP-induced head twitch (5HTP-induced head twitch; mice, nialamide treatment): inhibited 5HTP-induced head twitch; effect on clonidine-induced hypomotility [6]: seems unable to alter the hypomotility
NC(=O)CNC(c1ccccc1)c1ccc(Cl)cc1 (stereo not shown) [Compound 1, 2-[(4-chlorophenyl)phenyl]methylaminoacetamide]		9	2400	1000	Behavior: dose at which convulsions (CON) are observed (mice): 1000 mg/kg; Behavior: dose at which hypotonia (ATN) is observed (mice): 1000 mg/kg
NC(=O)CNC(c1ccc(F)cc1)c1ccccc1Cl (stereo not shown) [Compound 17, 2-[(2-chlorophenyl)(4-fluoropheny)]methylaminoacetamide]		10			
NC(=O)CNC(c1ccc(F)cc1)c1ccccc1F (stereo not shown) [Compound 11, 2-[(4-fluorophenyl)(2-fluorophenyl)]methylaminoacetamide]	8		315	100	Behavior: dose at which convulsions (CON) are observed (mice): 1000 mg/kg; Behavior: dose at which depression (DEP) is observed (mice): 1000 mg/kg
NC(=O)CNC(c1ccccc1)c1cccc(Cl)c1 (stereo not shown) [Compound 15, 2-[(3-chlorophenyl)phenyl]methylaminoacetamide]		9			
Cc1ccccc1C(NCC(N)=O)c1ccccc1 (stereo not shown) [Compound 4, 2-[(2-methylphenyl)phenyl]methylaminoacetamide]	5		780	300	Behavior: dose at which hypotonia (ATN) is observed (mice): 300 mg/kg
Cc1ccc(C(NCC(N)=O)c2ccccc2)cc1 (stereo not shown) [Compound 3, 2-[(4-methylphenyl)phenyl]methylaminoacetamide]	1		> 3000	1000	Behavior: dose at which depression (DEP) is observed (mice): 3000 mg/kg
Cc1ccc(C(NCC(N)=O)c2ccccc2)cc1C (stereo not shown) [Compound 6, 2-[(3,4-dimethylphenyl)phenyl]methylaminoacetamide]	2		3500	3000	Behavior: dose at which hypotonia (ATN) is observed (mice): 3000 mg/kg
NC(=O)CNC(c1ccccc1)c1ccccc1Cl (stereo not shown) [Compound 16, 2-[(2-chlorophenyl)phenyl]methylaminoacetamide]		9			
NC(=O)CNC(c1ccccc1)c1ccc(F)cc1 (stereo not shown) [Compound 12, 2-[(4-fluorophenyl)phenyl]methylaminoacetamide]	9	10			
Cc1ccc(C(NCC(N)=O)c2ccccc2)c(C)c1 (stereo not shown) [Compound 14, 2-[(2,4-dimethylphenyl)phenyl]methylaminoacetamide]	3	6			
CCCCCNCC(N)=O [2-pentylaminoacetamide, reference compound]					effect on 5HTP-induced head twitch (comparison compound) (5HTP-induced head twitch; under similar test conditions): potentiates 5HTP-induced head twitch
Cc1cccc(C(NCC(N)=O)c2ccccc2)c1 (stereo not shown) [Compound 5, 2-[(3-methylphenyl)phenyl]methylaminoacetamide]	2		3500	1000	

— patent publication US5278191A, “Diphenylmethylaminoacetamide derivatives as anti-convulsants” (G. D. Searle & Co., priority 1991, dated 1994)
